# Tests used:
# Assay in all cases: relative viability (nuclei count vs DMSO), 5 days (fraction); higher = more cells survive
# [1] = compound: C1CCC(CC1)N(CCNCCC2=C3C(=C(C=C2)O)NC(=O)CO3)C(=O)CCNCCC4=CC(=C(C=C4)Cl)Cl [AZ505] + Cc1cc(Nc2cc(N3CCN(C)CC3)nc(Sc3ccc(NC(=O)C4CC4)cc3)n2)n[nH]1 [Tozasertib] (partner 0.1 µM)
# Procedure, shortened: (§1)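 Medians of duplicate plates are given as relative viability. That measure is the nuclei count in treated wells divided by the count in vehicle wells. Counts were taken on 4× images of lung cancer cell lines in 1536-well plates, 5 days after pin-tool dosing the day after seeding with one drug alone or a fixed anchor-drug dose plus five library-drug doses (not always all listed) in √10 steps.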
# [2] = compound: Cn1c(=O)n(-c2ccc(C(C)(C)C#N)cc2)c2c3cc(-c4cnc5ccccc5c4)ccc3ncc21 [Dactolisib] + C[C@]1(O)C[C@@H](c2nc(-c3ccc4ccc(-c5ccccc5)nc4c3)c3c(N)nccn32)C1 [Linsitinib] (partner 1 µM)
# Procedure, shortened: as §1
# [3] = compound: Cn1c(=O)n(-c2ccc(C(C)(C)C#N)cc2)c2c3cc(-c4cnc5ccccc5c4)ccc3ncc21 [Dactolisib] + CC(C)C[C@H](NC(=O)[C@H](Cc1ccccc1)NC(=O)c1cnccn1)B(O)O [Bortezomib] (partner 0.002 µM)
# Procedure, shortened: as §1
# [4] = compound: Cn1c(=O)n(-c2ccc(C(C)(C)C#N)cc2)c2c3cc(-c4cnc5ccccc5c4)ccc3ncc21 [Dactolisib] + COc1cc2c(Oc3ccc(NC(=O)C4(C(=O)Nc5ccc(F)cc5)CC4)cc3F)ccnc2cc1OCCCN1CCOCC1 [Foretinib] (partner 0.25 µM)
# Procedure, shortened: as §1
Cell Line,relative viability ([1]; first compound 0.08 µM),relative viability ([1]; first compound 0.253 µM),relative viability ([1]; first compound 0.8 µM),relative viability ([1]; first compound 2.53 µM),relative viability ([1]; first compound 8 µM),relative viability ([2]; first compound 0.002 µM),relative viability ([2]; first compound 0.006325 µM),relative viability ([2]; first compound 0.02 µM),relative viability ([2]; first compound 0.06325 µM),relative viability ([2]; first compound 0.2 µM),relative viability ([3]; first compound 0.002 µM),relative viability ([3]; first compound 0.006325 µM),relative viability ([3]; first compound 0.02 µM),relative viability ([3]; first compound 0.06325 µM),relative viability ([3]; first compound 0.2 µM),relative viability ([4]; first compound 0.002 µM),relative viability ([4]; first compound 0.006325 µM),relative viability ([4]; first compound 0.02 µM),relative viability ([4]; first compound 0.06325 µM),relative viability ([4]; first compound 0.2 µM)
NCI-H1437,0.396,0.424,0.382,0.391,0.403,1.05,0.985,0.981,0.596,0.315,0.567,0.564,0.518,0.377,0.278,1.37,1.28,1.25,1.24,1.34
SW 1573,0.174,0.169,0.175,0.171,0.144,0.824,0.606,0.525,0.297,0.242,1.18,0.847,0.771,0.331,0.373,0.996,0.964,0.875,0.34,0.371
Calu-6,,,,,,0.875,0.939,0.898,0.492,0.495,1.08,1.07,1.06,0.593,0.387,0.826,0.915,0.879,0.531,0.543
NCI-H1792,,,,,,0.57,0.483,0.382,0.112,0.0865,0.872,0.948,0.936,0.598,0.313,,,,,
SK-MES-1,0.853,0.863,0.898,0.785,0.884,1.1,1.12,0.999,0.953,0.467,,,,,,1.04,0.818,0.906,0.571,0.397
NCI-H1650,0.313,0.448,0.496,0.369,0.321,,,,,,0.224,0.213,0.212,0.208,0.228,1.08,1.05,0.919,0.781,0.531
EBC-1,,,,,,0.974,0.756,0.863,0.202,0.177,0.625,0.523,0.373,0.216,0.191,0.102,0.0977,0.103,0.103,0.0903
NCI-H1623,0.454,0.457,0.425,0.445,0.443,,,,,,,,,,,0.907,0.882,0.768,0.596,0.418
NCI-H1648,0.469,0.581,0.408,0.562,0.703,,,,,,,,,,,,,,,
NCI-H522,0.459,0.552,0.488,0.603,0.674,,,,,,,,,,,,,,,
NCI-H1563,,,,,,1.25,1.11,1.02,0.62,0.654,0.904,0.903,0.819,0.603,0.59,0.919,0.885,0.913,0.654,0.651
NCI-H1793,0.392,0.346,0.386,,0.384,0.813,0.559,0.321,0.183,0.158,,,,,,0.655,0.416,0.241,0.2,0.166
NCI-H1299,,,,,,0.979,0.929,1.01,0.573,0.608,1.02,1.05,1.05,0.957,0.7,1.09,1.1,1.11,0.982,1.06
NCI-H358,0.094,0.0964,0.0966,0.108,0.104,0.848,0.641,0.549,0.293,0.211,,,,,,0.738,0.769,0.623,0.312,0.165
NCI-H1395,0.781,0.823,0.625,0.695,0.767,0.91,0.844,0.998,0.653,0.834,,,,,,1.03,0.916,0.942,0.636,0.537
NCI-H2342,0.441,0.625,0.559,0.509,0.618,,,,,,,,,,,1.1,0.96,0.855,0.679,0.525
A549,,,,,,0.578,0.58,0.465,0.194,0.125,,,,,,1.03,0.84,0.678,0.202,0.21
NCI-H1944,0.248,0.249,0.24,0.236,0.236,1.36,1.17,1.06,0.524,0.428,,,,,,1.13,0.914,0.852,0.425,0.392
SW 900,0.439,0.665,0.713,0.614,0.544,,,,,,,,,,,1.03,0.828,0.832,0.576,0.3
IA-LM,,,,,,0.681,0.613,0.6,0.124,0.206,0.828,0.691,0.511,0.145,0.0972,1.28,1.07,0.837,0.497,0.453
ChaGo-K-1,0.2,0.232,0.244,0.216,0.238,,,,,,0.977,1.07,0.861,1.04,0.755,0.908,0.919,0.886,0.835,0.926
LK-2,0.17,0.167,0.197,0.167,0.184,0.389,0.508,0.507,0.169,0.251,,,,,,1.19,0.997,0.766,0.444,0.196
HCC-44,0.887,0.992,0.922,0.88,1.04,0.707,0.741,0.431,0.315,0.265,0.932,0.84,0.968,0.535,0.516,,,,,
